# Reference: US9290457B2, “Substituted dihydropyrimidinones and their use as inhibitors of neutrophil elastase activity” (Boehringer Ingelheim International GmbH, priority 2014, dated 2016)
# Target: neutrophil elastase (Homo sapiens (Human), UniProt P08246)
# Assay: Human Neutrophil Elastase Assay
# Format: biochemical
# Conditions: substrate MeOSuc-Ala-Ala-Pro-Val-AMC
# Sequence of neutrophil elastase (P08246 30-247): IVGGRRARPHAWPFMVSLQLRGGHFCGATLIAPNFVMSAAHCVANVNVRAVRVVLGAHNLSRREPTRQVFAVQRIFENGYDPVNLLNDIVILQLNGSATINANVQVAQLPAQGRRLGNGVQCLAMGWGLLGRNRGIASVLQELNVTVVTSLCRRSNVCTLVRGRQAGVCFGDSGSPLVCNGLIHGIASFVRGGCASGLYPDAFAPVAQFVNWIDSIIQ
row,IC50,SMILES
1,< 1 nM,CC(=O)C1=C(C)N(c2cccc(C(F)(F)F)c2)C(=O)N(C)C1c1ccc(C#N)cc1C(=O)NC1CCS(=O)(=O)C1 (stereo not shown) [Example 1.31]
2,1.4 nM,"CCOC(=O)C1=C(C)N(c2cccc(C(F)(F)F)c2)C(=O)N(C)C1c1ccc(C#N)cc1C(=O)N1CCNCC1 (stereo not shown) [Example 4, 4-[4-Cyano-2-(piperazine-1-carbonyl)-phenyl]-3,6-dimethyl-2-oxo-1-(3-trifluoromethyl-phenyl)-1,2,3,4-tetrahydro-pyrimidine-5-carboxylic acid ethyl ester]"
3,< 1 nM,CC(=O)C1=C(C)N(c2cccc(C(F)(F)F)c2)C(=O)N(C)C1c1ccc(C#N)cc1C(=O)NCc1ccnnc1 (stereo not shown) [Example 1.49]
4,3.8 nM,CCOC(=O)C1=C(C)N(c2cccc(C(F)(F)F)c2)C(=O)N(C)C1c1ccc(C#N)cc1C(=O)N1CCN2CCOCC2C1 (stereo not shown) [Example 3.46]
5,2.25 nM,CC(=O)C1=C(C)N(c2cccc(C(F)(F)F)c2)C(=O)N(C)C1c1ccc(C#N)cc1C(=O)N1CCOCC1 (stereo not shown) [Example 1.3]
6,< 1 nM,CC(=O)C1=C(C)N(c2cccc(C(F)(F)F)c2)C(=O)N(C)C1c1ccc(C#N)cc1C(=O)N1CCn2ccnc2C1 (stereo not shown) [Example 1.70]
7,3 nM,CCOC(=O)C1=C(C)N(c2cccc(C(F)(F)F)c2)C(=O)N(C)C1c1ccc(C#N)cc1C(=O)N1CCN(CC)CC1 (stereo not shown) [Example 3.2]
8,1.4 nM,CC(=O)C1=C(C)N(c2cccc(C(F)(F)F)c2)C(=O)N(C)C1c1ccc(C#N)cc1-c1ccn(C)n1 (stereo not shown) [Example 5.2]
9,< 1 nM,CC(=O)C1=C(C)N(c2cccc(C(F)(F)F)c2)C(=O)N(C)C1c1ccc(C#N)cc1C(=O)NCc1ccco1 (stereo not shown) [Example 1.35]
10,1.1 nM,CC(=O)C1=C(C)N(c2cccc(C(F)(F)F)c2)C(=O)N(C)C1c1ccc(C#N)cc1C(=O)NC1CCC(O)C1 (stereo not shown) [Example 1.25]
11,< 1 nM,CC(=O)C1=C(C)N(c2cccc(C(F)(F)F)c2)C(=O)N(C)C1c1ccc(C#N)cc1C(=O)NCc1ccoc1 (stereo not shown) [Example 1.34]
12,1.3 nM,CCOC(=O)C1=C(C)N(c2cccc(C(F)(F)F)c2)C(=O)N(C)C1c1ccc(C#N)cc1C(=O)NCC(C)(C)O (stereo not shown) [Example 3.23]
13,< 1 nM,CCOC(=O)C1=C(C)N(c2cccc(C(F)(F)F)c2)C(=O)N(C)C1c1ccc(C#N)cc1-c1ccn(C)c(=O)c1 (stereo not shown) [Example 14.9]
14,< 1 nM,"CC(=O)C1=C(C)N(c2cccc(C(F)(F)F)c2)C(=O)N(C)C1c1ccc(C#N)cc1-c1nc(C)no1 (stereo not shown) [Example 9, 4-[5-Acetyl-3,6-dimethyl-2-oxo-1-(3-trifluoromethyl-phenyl)-1,2,3,4-tetrahydro-pyrimidin-4-yl]-3-(5-methyl-[1,3,4]oxadiazol-2-yl)-]"
15,1.2 nM,CCOC(=O)C1=C(C)N(c2cccc(C(F)(F)F)c2)C(=O)N(C)C1c1ccc(C#N)cc1C(=O)N[C@H]1CCNC1 (stereo partly shown) [Example 4.10]
16,1.4 nM,CCOC(=O)C1=C(C)N(c2cccc(C(F)(F)F)c2)C(=O)N(C)C1c1ccc(C#N)cc1C(=O)NC1CCOCC1 (stereo not shown) [Example 3.29]
17,< 1 nM,CC(=O)C1=C(C)N(c2cccc(C(F)(F)F)c2)C(=O)N(C)C1c1ccc(C#N)cc1C(=O)N(C)Cc1ccon1 (stereo not shown) [Example 1.59]
18,< 1 nM,CC(=O)C1=C(C)N(c2cccc(C(F)(F)F)c2)C(=O)N(C)C1c1ccc(C#N)cc1C(=O)NCc1ccnn1C (stereo not shown) [Example 1.53]
19,< 1 nM,"CC(=O)C1=C(C)N(c2cccc(C(F)(F)F)c2)C(=O)N(C)C1c1ccc(C#N)cc1C1=CCNCC1 (stereo not shown) [Example 10, 4-[5-Acetyl-3,6-dimethyl-2-oxo-1-(3-trifluoromethyl-phenyl)-1,2,3,4-tetrahydro-pyrimidin-4-yl]-3-(1,2,3,6-tetrahydro-pyridin-4-yl)-benzonitrile]"
20,< 1 nM,CC(=O)C1=C(C)N(c2cccc(C(F)(F)F)c2)C(=O)N(C)C1c1ccc(C#N)cc1C(=O)N(C)Cc1cnn(C)c1 (stereo not shown) [Example 1.30]

row,IC50,SMILES
1,< 1 nM,"CC(=O)C1=C(C)N(c2cccc(C(F)(F)F)c2)C(=O)N(C)[C@@H]1c1ccc(C#N)cc1C(N)=O [Example 13, 2-[(R)-5-Acetyl-3,6-dimethyl-2-oxo-1-(3-trifluoromethyl-phenyl)-1,2,3,4-tetrahydro-pyrimidin-4-yl]-5-cyano-benzamide]"
2,< 1 nM,CC(=O)C1=C(C)N(c2cccc(C(F)(F)F)c2)C(=O)N(C)C1c1ccc(C#N)cc1C(=O)NC1CCOC1 (stereo not shown) [Example 1.19]
3,< 1 nM,CC(=O)C1=C(C)N(c2cccc(C(F)(F)F)c2)C(=O)N(C)C1c1ccc(C#N)cc1C(=O)NCc1ccno1 (stereo not shown) [Example 1.38]
4,< 1 nM,CC(=O)C1=C(C)N(c2cccc(C(F)(F)F)c2)C(=O)N(C)C1c1ccc(C#N)cc1C(=O)N(C)Cc1nccn1C (stereo not shown) [Example 1.75]
5,< 1 nM,CCOC(=O)C1=C(C)N(c2cccc(C(F)(F)F)c2)C(=O)N(C)C1c1ccc(C#N)cc1C(=O)NCCN(C)C (stereo not shown) [Example 3.35]
6,< 1 nM,"CC(=O)C1=C(C)N(c2cccc(C(F)(F)F)c2)C(=O)N(C)C1c1ccc(C#N)cc1C(N)=O (stereo not shown) [Example 1, 2-[5-Acetyl-3,6-dimethyl-2-oxo-1-(3-trifluoromethyl-phenyl)-1,2,3,4-tetrahydro-pyrimidin-4-yl]-5-cyano-benzamide]"
7,2.8 nM,CC(=O)C1=C(C)N(c2cccc(C(F)(F)F)c2)C(=O)N(C)C1c1ccc(C#N)cc1C(=O)N1CCc2nocc2C1 (stereo not shown) [Example 1.72]
8,1.8 nM,CC(=O)C1=C(C)N(c2cccc(C(F)(F)F)c2)C(=O)N(C)C1c1ccc(C#N)cc1C(=O)NC(C)(C)C#N (stereo not shown) [Example 1.33]
9,< 1 nM,CC(=O)C1=C(C)N(c2cccc(C(F)(F)F)c2)C(=O)N(C)C1c1ccc(C#N)cc1C(=O)NCc1cnco1 (stereo not shown) [Example 1.40]
10,3.2 nM,CCOC(=O)C1=C(C)N(c2cccc(C(F)(F)F)c2)C(=O)N(C)C1c1ccc(C#N)cc1-c1ccoc1 (stereo not shown) [Example 14.1]
11,< 1 nM,CC(=O)C1=C(C)N(c2cccc(C(F)(F)F)c2)C(=O)N(C)C1c1ccc(C#N)cc1C(=O)N(C)Cc1ccn(C)n1 (stereo not shown) [Example 1.78]
12,< 1 nM,CC(=O)C1=C(C)N(c2cccc(C(F)(F)F)c2)C(=O)N(C)C1c1ccc(C#N)cc1-c1ccc(=O)n(C)c1 (stereo not shown) [Example 5.11]
13,< 1 nM,CC(=O)C1=C(C)N(c2cccc(C(F)(F)F)c2)C(=O)N(C)C1c1ccc(C#N)cc1C(=O)N(C)CCN(C)C (stereo not shown) [Example 1.44]
14,4.1 nM,CCN1CCN(C(=O)c2cc(C#N)ccc2C2C(C(C)=O)=C(C)N(c3cccc(C(F)(F)F)c3)C(=O)N2C)CC1 (stereo not shown) [Example 1.65]
15,< 1 nM,CC(=O)C1=C(C)N(c2cccc(C(F)(F)F)c2)C(=O)N(C)C1c1ccc(C#N)cc1C(=O)N(C)Cc1ccno1 (stereo not shown) [Example 1.60]
16,3 nM,CC(=O)C1=C(C)N(c2cccc(C(F)(F)F)c2)C(=O)N(C)C1c1ccc(C#N)cc1-c1ccc2c(cnn2C)c1 (stereo not shown) [Example 5.12]
17,< 1 nM,CCOC(=O)C1=C(C)N(c2cccc(C(F)(F)F)c2)C(=O)N(C)C1c1ccc(C#N)cc1C(=O)NCCN (stereo not shown) [Example 4.5]
18,1.1 nM,CCOC(=O)C1=C(C)N(c2cccc(C(F)(F)F)c2)C(=O)N(C)C1c1ccc(C#N)cc1C(=O)NCCS(C)(=O)=O (stereo not shown) [Example 3.32]
19,< 1 nM,CC(=O)C1=C(C)N(c2cccc(C(F)(F)F)c2)C(=O)N(C)C1c1ccc(C#N)cc1C(=O)N1CC[C@@H](N)C1 (stereo partly shown) [Example 2.10]
20,22.6 nM,CC(=O)C1=C(C)N(c2cccc(C(F)(F)F)c2)C(=O)N(C)C1c1ccc(C#N)cc1-c1ccc2occc2c1 (stereo not shown) [Example 5.13]
